Patent US20220133669A1, “PHARMACEUTICAL COMPOSITIONS COMPRISING 15-HETRE AND METHODS OF USE THEREOF” (DS Biopharma Limited, priority 2020, published 2022)

Columns and labels:
human islet microtissue [1] = experiment: Cytotoxicity pretest: ATP content (CellTiter-Glo cell viability) in islet microtissues; format: cell-based; details: after 7 days of treatment
Protocol: (§1) From Days 0-7, a human islet microtissue was established. On Day 7, 15-HETrE treatment commenced. From Days 9-12, the culture media was renewed and the compound (15-HETrE) was re-dosed. On Day 14, an assessment on islet cell viability was performed—tissues were lysed to measure ATP content using Promega CellTiter-Glo luminescent cell viability assay. On Day 14, an assessment on islet cell function was also performed—conditioned media from the last 48 hours of the experiment was collected to test chronic insulin secretion. And lastly, on Day 14, insulin was quantified—following dilutions in Krebs-Ringer HEPES buffer, chronic insulin secretion was quantified using STELLUX Chemi Human Insulin ELISA assay.

human islet microtissue [2] = experiment: Cytotoxicity pretest: chronic insulin secretion (Human Insulin ELISA) of islet microtissues; format: cell-based; details: 300 μM; after 7 days of treatment
Protocol: as §1

human islet microtissue [3] = experiment: 15-HETrE efficacy: human islet microtissue function under glucotoxic conditions; format: cell-based
Protocol: (§2) The aim of the following study was to determine the effects of 15(S)-HETrE activity on diabetes. This aim was accomplished by (1) identifying a cytotoxic threshold of 15(S)-HETrE in islet microtissues and (2) testing the effects of 15(S)-HETrE on human islet microtissue function under conditions of glucotoxicity and cytokine stress.
(§3) From Days 0-13, an islet microtissue model was established and glucotoxicity pre-test performed. Day 14 marked the start of glucotoxicity assay and 12.5 μM, 25 μM and 50 μM 15(S)-HETrE treatment. From Days 16-19, the culture media was renewed, and the compound (15-HETrE) was re-dosed. Day 12 marked the start of the cytokine stress assay for the 12.5 μM, 25 μM and 50 μM 15(S)-HETrE treatment. On Day, 12 an intermediate assessment of the compound effects was also performed (e.g., Day 7 incubation in glucotoxic conditions). On Day 12, a renewal of the culture media and compound treatment was performed. On Days 23 and 26, a renewal of the culture media and compound treatment was also performed. Lastly, on Day 28, an assessment of the compound effects under glucotoxicity/cytokine stress at the end of 14- and 7-day incubation was performed.

human islet microtissue [4] = experiment: 15-HETrE efficacy: human islet microtissue under cytokine stress; format: cell-based; details: 50 μM
Protocol: as §2, §3

[5] = Tissue distribution following oral administration of 15-HETrE; format: in vivo, rats; details: 500 mg/kg p.o. once daily for 7 days; tissues taken 24 hours after final dose
Protocol: The objective of this study was to examine distribution of orally administered 15-HETrE. Male CRL:CD rats were obtained from Charles River Laboratories. Upon receipt, animals were allowed to acclimatize for 5 days prior to start of testing, housed under a 12 h light/dark cycle, and provided a pellet diet (RM-1) and water ad libitum. Animals were dosed with 15-HETrE or vehicle (0.5% HPMC in ASTM Type 1 water) p.o. once daily for 7 days. Animals were monitored at 0.25, 0.5, and 1 hour post dose. During the treatment period, individual body weight was measured daily as well as clinical signs of behavior and survival.
24 hours after the final p.o. dose, each animal was killed by anaesthetic overdose with an intraperitoneal injection of pentobarbitone. A blood sample was collected from the descending vena cava. Lungs, heart, liver, kidneys, spleen, colon, and an area of shaved skin were harvested from each animal, rinsed in PBS, dabbed dry, weighed, and snap-frozen by immersion in liquid nitrogen. All tissue samples were stored frozen at −80° C.

ATP content (human islet microtissue [4]) | Compound | ATP content (human islet microtissue [1]; 11.1 μM) | ATP content (human islet microtissue [1]; 300 μM) | chronic insulin secretion (human islet microtissue [2]) | fold stimulation of insulin secretion (human islet microtissue [3]; 25 μM, day 14) | ATP levels (human islet microtissue [3]; 50 μM) | chronic insulin secretion (human islet microtissue [3]; day 7) | stimulated insulin secretion (human islet microtissue [3]; day 7, 50 μM) | basal insulin secretion (human islet microtissue [3]; day 7, 12.5, 25 and 50 μM) | chronic insulin secretion (human islet microtissue [3]; day 14) | basal insulin secretion (human islet microtissue [3]; day 14, 12.5, 25 and 50 μM) | tissue distribution of 15-HETrE (heart, kidney, liver, spleen, lung, plasma, skin, colon) vs control animals [5]
significant decrease | CCCCC[C@H](O)/C=C/C=C\C/C=C\CCCCCCC(=O)O [15(S)-HETrE] | significant increase | significant decrease | significant decrease | improved | significantly decreased | reduced | significant decrease | dose-dependent decrease | reduced | dose-dependent decrease | –
– | CCCCCC(O)/C=C/C=C\C/C=C\CCCCCCC(=O)O (stereo not drawn) [15-HETrE, 15-hydroxy-eicosa-8(Z),11(Z),13(E)-trienoic acid] | – | – | – | – | – | – | – | – | – | – | targeted all organs tested, including the skin
